Series [1] concerns germline Gpt2-null mice. In words: Dietary supplementation of germline Gpt2-null mice: survival and phenotype. The class given is in vivo, mouse. The source says: Vertebrate animal assays. The assays use a wild-type mouse line and a genetically modified mouse line (i.e., germline Gpt2-null line). A person having ordinary skill in the biomedical art can perform these assays following the procedures in protocol 18-11-0002, approved by the Brown University Institutional Animal Care and Use Committee (IACUC). All animals used in assays described in this specification were housed at the Brown University Animal Care Facility.
Rescue of motor phenotype in vivo with dietary modifications. Synthesis of alanine in the brain is prominently deficient in Gpt2-null animals. An overriding hypothesis (OH1) is that, in the absence of GPT2, alanine changes from a non-essential amino acid to an essential amino acid in neurons, and neuronal alanine deficiency impedes protein synthesis and neuronal growth. The inventors determined there is an anaplerotic defect in Gpt2-null brains (OH2). The inventors are attempting to rescue animal survival, weight gain, and health of the motor system by alanine supplementation, anaplerotic supplementation, and the combination. […] The inventors are testing the extent to which other phenotypic aspects, particularly related to motor defects, are ameliorated by alanine supplementation over time with and without anaplerotic supplementation. The inventors also investigate the requirement for exogenous dietary alanine by removing alanine from the diet of Gpt2-null animals.
Alanine supplementation: Littermate germline Gpt2-null and wild-type animals are fed either high-alanine diet (5% by weight), alanine-deprived diet (0%), or standard chow (1.2%). The formulations generated by Envigo are fed to breeding pairs, pregnant mothers, and pups, based on prior studies by Battaglia & Regnault, Placenta, 22, 145-161 (2001). Food is provided ad libitum. Therefore, newborn Gpt2-mutant pups are receiving the diet throughout gestation and from birth onward. […] The inventors measured alanine in peripheral blood and brain tissue by metabolomics. […]

The conditions of series [2]: in vivo; cited from earlier work.
For series [3] the following is noted: preclinical studies (Willis et al. 2010; Hadera et al. 2014); cited from earlier work.
The conditions of series [4]: clinical trials, e.g., NCT01379625 and NCT01993186 (Vockley et al. 2017); cited from earlier work.

Entries after “also recorded” stand apart in the source; their conditions may differ.

For the molecule `C[C@H](N)C(=O)O` [alanine], the “effect on survival of germline Gpt2-null animals (in words)” value in series [1] (alanine supplementation / high-alanine diet, preliminary work) is “impact; also recorded: improves the survival”. Also, the “effect on phenotype in the mouse model of Gpt2 disease (in words)” value in series [1] (dietary supplementation in development, preliminary data) is “benefited; also recorded: partially ameliorates the phenotype”. The “survival of germline Gpt2-null pups beyond weaning” value in series [1] (supplemental dietary alanine to pregnant and lactating mothers and pups, freely feeding, vs. 0% on standard chow, p<0.0001, log-rank (Mantel-Cox) test) amounted to 36.7%. Besides, the “crosses the blood-brain barrier” value in series [2] is reported as “crosses the blood-brain barrier”.
On to `CCCCCCC(=O)OCC(COC(=O)CCCCCC)OC(=O)CCCCCC` [triheptanoin, reference compound], for which the antiseizure effects result in series [3] is listed as “has antiseizure effects”. For the same molecule, the tolerability result in series [4] is listed as “well tolerated”.
